Literature values in patent US20170080084A1, “OIL/SURFACTANT MIXTURES FOR SELF-EMULSIFICATION” (priority 2014, published 2017).

conditions: readily available values

Compound | HLB
CCCCCCCCCCCCOS(=O)(=O)[O-].[Na+] [SDS] | 40
Sorbitan monooleate | 4.3
polyoxyethylene (10) lauryl ether | 17
polyoxyethylene cetostearyl ether | 13.5
polyoxyethylene sorbitan monooleate [polysorbate 80] | 15
